Experiments:
[1] = target: T1, proton pump (H+/K+-ATPase) (Sus scrofa, UniProt P19156); assay: Inhibitory effects on proton pump (H+/K+-ATPase) activity; assay type: biochemical; settings: hog gastric vesicles, K+ stimulated H+/K+-ATPase activity, Pi at 620 nm, 30 minutes at 37° C.
T1 construct: used as an enzyme source of the in vitro enzyme reaction assay of proton pump; from tissue; host or cells: hog gastric fundic mucosa; membrane vesicles, lyophilized
Experimental: 1-1. Preparation of gastric proton pump vesicles
The hog fundic regions containing parietal and peptic cells were scraped with slide-glass. The collected cells were suspended in 10 ml of 0.25M sucrose buffer and homogenized using a tight-fitting Teflon-glass homogenizer. The homogenate was centrifuged for 35 min at 8,000 rpm and the pellet was discarded. The supernatant was further centrifuged for 75 min at 25,000 rpm. The resulting pellets were re-suspended in the sucrose buffer (10 ml), and then the suspension was laid onto discontinuous density gradients consisting of 0.25M sucrose buffer and isolation medium containing 9% Ficoll (w/w). After being centrifuged for 3 hours and 15 minutes at 100,000×g, the material at the interface of sucrose buffer and Ficoll solution was collected and then centrifuged for 40 minutes at 100,000×g. The resulting pellets were re-suspended in 1 ml of 5 mM Hepes/Tris buffer (pH 6.1). This material was lyophilized and stored at −70° C. and used as an enzyme source of the in vitro enzyme reaction assay of proton pump.
1-2. Measurement of inhibitory effects on proton pump (H^+/K^+-ATPase) activity
The inhibitory effects of the compounds of the present invention against proton pump activity were evaluated in 96-well plate. In this assay, the K^+specific H^+/K^+-ATPase activity was calculated based on the difference between the activity of H^+/K^30 -ATPase activity with K^30 and without K^30 ion. In 96-well plate, 1% dimethylsulfoxide (DMSO) in buffer was added to negative and positive control groups and the diluted compounds of the present invention in buffer were added to test group. All assays were performed in 100μl reaction volume at room temperature, and the hog gastric vesicle was kept in ice before use. At the beginning of the reaction, 10μl of reaction buffer containing 1% DMSO was added to the negative and positive control groups and to reaction buffer each concentration of compounds in the test group. Then lyophilized vesicle in 5mM Pipes/Tris buffer (pH 6.1) was pre-incubated in the presence of various concentrations of test compounds. After a 5 minute incubation, negative and positive buffers were respectively added to the previous reaction mixture. As the substrate, ATP was added to the reaction buffer, and incubated for 30 minutes at 37° C. Enzymatic activity was stopped by the addition of colorimetric reagent (2X malachite green, 1X ammonium molybdate, X polyvinyl alcohol, 2X H2O) and the amount of mono phosphate (Pi) in the reaction was measured at 620nm using the micro plate reader (Genios Pro, TECAN). The difference between the Pi production with K^+and without K^+is taken as K^+stimulated H^+/K^+-ATPase activity. The IC50s of test compounds were calculated from each % inhibition value of compounds using the method of Litchfield-Wilcoxon (J. Pharmacol. Exp. Ther. (1949) 96, 99).

[2] = system: basal gastric acid secretion; assay: Inhibitory effects on basal gastric acid secretion in pylorus-ligated rats (Shay's rat model); assay type: in vivo, Sprague Dawley (SD) rats; settings: oral, one hour before pylorus ligation, total acid output 5 hours after ligation, male SD rats
Experimental: Test Example 2. Inhibitory effects on basal gastric acid secretion in pylorus-ligated rats. Inhibitory effects of the compounds of the present invention on basal gastric acid secretion were performed according to Shay's rat model (Shay, H., et al., 1945, gastroenterology, 5, 43-61). Male Sprague Dawley (SD) rats (200±10 g body weight) were divided into 3 groups (n=5) and fasted for 24 hours with free access to water. Control group was orally administered with 0.5% methylcellulose alone and the other groups were orally administered with test compounds suspended in 0.5% methyl-cellulose solution at doses of 1, 3 and 10 mg/kg/5 ml one hour before pylorus ligation. Under ether anesthesia, the abdomens of the rats were incised and then the pylorus was ligated. 5 hours after ligation, the animals were sacrificed, and the gastric contents were collected. The collected contents were centrifuged at 1,000×g for 10 minutes to obtain the gastric juice. Total acid output was measured by 0.01N NaOH volume (ueq/ml) for automatic titration of the gastric juice to pH 7.0 and the ED50s of test compounds were calculated using the Litchfield-Wilcoxon method. % inhibitory activity was calculated from the following equation and the results are shown in Table 2. %inhibitory activity of test compound=(total acid output of control group−total acid output of the group treated with test compounds)/total acid output of control group X 100

hog gastric H+/K+-ATPase = target: T2, hog gastric H+/K+-ATPase (Sus scrofa, UniProt P19156); assay: Reversible inhibition of hog gastric H+/K+-ATPase (Washout method); assay type: biochemical
T2 construct: from tissue; host or cells: hog gastric fundic mucosa; gastric vesicles/microsomes, lyophilized
T2 sequence (P19156 whole entry): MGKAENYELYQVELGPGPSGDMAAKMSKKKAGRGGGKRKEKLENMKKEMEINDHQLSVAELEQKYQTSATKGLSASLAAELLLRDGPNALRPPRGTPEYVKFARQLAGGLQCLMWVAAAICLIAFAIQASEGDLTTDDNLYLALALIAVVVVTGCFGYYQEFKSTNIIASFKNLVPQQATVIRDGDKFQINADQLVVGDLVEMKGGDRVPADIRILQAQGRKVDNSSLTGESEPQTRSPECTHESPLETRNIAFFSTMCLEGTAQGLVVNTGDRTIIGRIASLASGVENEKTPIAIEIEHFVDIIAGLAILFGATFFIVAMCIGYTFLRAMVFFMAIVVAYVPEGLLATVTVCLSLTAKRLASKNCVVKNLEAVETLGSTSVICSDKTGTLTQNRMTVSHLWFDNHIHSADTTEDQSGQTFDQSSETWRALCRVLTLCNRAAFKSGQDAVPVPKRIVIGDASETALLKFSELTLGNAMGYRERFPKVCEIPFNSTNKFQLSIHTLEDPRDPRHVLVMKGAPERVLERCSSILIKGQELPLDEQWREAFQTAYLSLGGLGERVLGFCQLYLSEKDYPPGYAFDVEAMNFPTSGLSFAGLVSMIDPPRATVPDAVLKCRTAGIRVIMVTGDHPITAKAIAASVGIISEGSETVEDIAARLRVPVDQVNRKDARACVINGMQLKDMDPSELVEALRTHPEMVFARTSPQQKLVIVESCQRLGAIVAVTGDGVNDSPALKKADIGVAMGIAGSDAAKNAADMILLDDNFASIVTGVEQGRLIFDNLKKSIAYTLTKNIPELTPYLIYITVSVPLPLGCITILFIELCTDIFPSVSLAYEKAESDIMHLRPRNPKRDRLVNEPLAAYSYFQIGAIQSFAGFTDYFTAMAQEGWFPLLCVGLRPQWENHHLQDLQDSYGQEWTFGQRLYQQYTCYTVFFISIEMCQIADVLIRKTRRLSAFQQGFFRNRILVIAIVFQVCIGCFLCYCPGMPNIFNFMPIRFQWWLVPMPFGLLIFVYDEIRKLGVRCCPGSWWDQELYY
T2 sequence (P18434 whole entry partner): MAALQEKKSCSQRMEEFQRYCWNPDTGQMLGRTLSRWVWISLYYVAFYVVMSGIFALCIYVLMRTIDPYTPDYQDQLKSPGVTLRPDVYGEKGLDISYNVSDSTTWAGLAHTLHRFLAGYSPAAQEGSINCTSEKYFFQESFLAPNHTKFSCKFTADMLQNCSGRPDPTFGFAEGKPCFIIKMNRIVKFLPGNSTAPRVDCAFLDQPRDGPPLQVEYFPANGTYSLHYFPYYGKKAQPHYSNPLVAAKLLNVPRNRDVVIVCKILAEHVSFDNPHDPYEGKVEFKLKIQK
Experimental: Gastric vesicles were prepared from hog fundic mucosa using the method of Saccomani et al. (Saccomani G, Stewart H B, Shqw D, Lewin M and Sachs G, Characterization of gastric mucosal membranes. IX. Fraction and purification of K-ATPase-containing vesicles by zonal centrifugation and free-flow electrophoresis techinque. Biochem. Biophy. Acta.(BBA)—Biomembranes 465, 311-330, 1977.). This material was lyophilized and stored at −70° C. The protein content of gastric vesicles was determined by the Bradford method using bovine serum albumin as a standard (Bradford M M, A rapid and sensitive method for the quantitation of microgram quantities of protein utilizing the principle of protein-dye binding. Anal Biochem. 72, 248-254, 1976).
Activity of H^+/K^+-ATPase in hog microsome (lyophilized vesicle) was measured by the inorganic phosphate released from ATP using an one-step colorimetric detection method at the concentration at which the test compounds have 50% inhibition of the proton pump (Chan K M, Delfert D, and Junger K D, A direct colorimetric assay for Ca^2+-stimulated ATPase activity. Anal Biochem, 157, 375-380, 1986). […]

T1 sequence (P19156 whole entry): as the sequence (P19156 whole entry) above
T1 sequence (P18434 whole entry partner): as the sequence (P18434 whole entry partner) above

SMILES | IC50 [1] [nM] | ED50 [2] [mg/kg] | inhibition of H+/K+-ATPase activity after washout (hog gastric H+/K+-ATPase; after washout, compared with non-treated group) | inhibition of H+/K+-ATPase activity before washout (hog gastric H+/K+-ATPase; before washout, test compound at the concentration at which it has 50% inhibition) [%]
Cc1c(C)n(Cc2ccccc2)c2c(OCc3ccc(F)cc3)cncc12.Cl [Example 12, 1-benzyl-7-(4-fluorobenzyloxy)-2,3-dimethyl-1H-pyrrolo[3,2-c]pyridine hydrochloride] | 10 | 3.3 | – | –
CCCn1c(C)c(C)c2cncc(OCc3ccc(F)cc3)c21.Cl [Example 16, 7-(4-fluorobenzyloxy)-2,3-dimethyl-1-propyl-1H-pyrrolo[3,2-c]pyridine hydrochloride] | 10 | 1.8 | – | –
COCCn1c(C)c(C)c2cncc(OCc3ccc(F)cc3)c21.Cl [Example 17, 7-(4-fluorobenzyloxy)-1-(2-methoxyethyl)-2,3-dimethyl-1H-pyrrolo[3,2-c]pyridine hydrochloride] | 10 | 3.3 | – | –
CCCn1c(C)c(C)c2cncc(N3CCc4ccccc4C3)c21.Cl [Example 38, 2-(2,3-dimethyl-1-propyl-1H-pyrrolo[3,2-c]pyridin-7-yl)-1,2,3,4-tetrahydroisoquinoline hydrochloride] | 190 | – | did not inhibit | 50
